Assay results published in patent US20030188679A1, “Powdered mannitol and mannitol-containing compositions” (priority 2000, published 2003).

Assay: Particle size result of micronised salbutamol sulphate
Assay type: physicochemical

## Salbutamol Sulphate
  Particle size result: MMD (Mass Mean Diameter): =2.53 μm.
  Particle size result: fraction of particles >1 μm: 90.17%
  Particle size result: size below which 90% of particles lie: <5.48 μm
